Consider 13 molecules from article PMC6557900 (Nature Communications, 2019).

Experiment [1] has as its target T1, wild-type SBC (SOCS2-ElonginB-ElonginC) (Homo sapiens, UniProt O14508+Q15369+Q15370).
T1 construct: His6 (N, cleaved yes); made in house; host or cells: E. coli BL21(DE3)
Kind of experiment: SPR direct binding, wild-type SBC immobilized on the chip. The following applies: mean ± s.e.m., four independent experiments. How it is done:
(§1) Biotinylated wild-type SBC and mutants were immobilized onto a chip surface and injected a series of seven concentrations (0.08, 0.25, 0.7, 2.2, 6.7, 20 and 60 μM) of peptide across the sensor surface for 60 s contact time and 120 sec dissociation time at 30 μl min^−1 flow rate. Data analysis was carried out using Biacore Evaluation Software (GE Healthcare). All data were double-referenced for reference surface and blank injection. The processed sensograms were fit to a steady-state affinity using a 1:1 binding model for KD estimation (raw data shown in Supplementary Figs. 10–15).

For experiment [2], the target named is SBC (SOCS2-ElonginB-ElonginC) (Homo sapiens, UniProt O14508+Q15369+Q15370). Kind of experiment: 19F ligand-observed CPMG NMR displacement of spy molecule 3.
Description: In the ^19F NMR displacement assay, the fluorine signal of a purposely-designed reporter ligand (also referred to as spy molecule) was monitored as a mean to quantify the extent of the competition between the tested peptides and the spy molecule. A Carr-Purcell-Meiboom-Gill (CPMG) pulse sequence was applied to estimate the spin–spin relaxation time (T2) of the spy molecule in the absence and presence of protein[43]–[45]. By adding competitor to disrupt the protein-spy interaction, the binding affinity of a competitor can be calculated based on the degree of displacement of the spy[46],[47].
All NMR experiments were conducted using AV-500 MHz Bruker spectrometer equipped with a 5 mm CPQCI 1H/19F/13C/15N/D Z-GRD cryoprobe) at 298 K. Spectra were recorded using 80 scans of a CPMG pulse sequence that attenuates broad resonances. […] The transmitter frequency was placed close to the resonance of O1 = −35451 Hz (−75.3 ppm). […] All NMR data were processed and analyzed using TopSpin (Bruker).
The dissociation constant of peptides (Ki) was calculated by adapting the method described by Wang et al.[47] Briefly, peptides’ Ki values were obtained from the equation below:1 Ki=([P0]-[PI]-[PL])([I0]-[PI])/[PI] where [I0] and [P0] are the total concentrations of the competitor (peptide inhibitor) and protein, respectively, used in the experiment, while [PI] and [PL] are the free concentrations of protein–peptide and protein–spy complexes, which are unknown.
To determine [PL] the following equation was used:2 IF-II/IF-IP=[PL]/[PL0] where IF is the measured integral of the fluorine peak of the spy molecule free in solution; IP is the integral of the same signal in the presence of protein; II is the integral of the same signal in the presence of protein and competing peptide; and [PL0] is the concentration of protein-spy complex in the absence of competitor, which was calculated using the following equation:3 [PL0]=[P0]+[L0]+KD-([P0]+[L0]+KD)^2-4[P0][L0]/2 where [L0] is the total concentrations of spy molecule used in the experiment, and KD is the dissociation constant of the protein-spy complex (determined by ITC). To determine [PI] the following equation was used: 4 [PL]=[P0]+[L0]+KD-[PI]-([P0]+[L0]+KD-[PI])^2-4([P0]-[PI])[L0]/2 where [PL] was determined as described above (Equation 2).
The target in experiment [3] is T2, SOCS2-EloB-EloC ternary (SBC) complex (Homo sapiens, UniProt O14508+Q15369+Q15370).
T2 construct: His6 (N, cleaved yes); made in house; host or cells: E. coli BL21(DE3)
Briefly: Isothermal titration calorimetry (ITC), ligand titrated into SBC. The experiment is classed as binding. As for the experimental part:
The ITC titration consisted of 0.4 μl initial injection (discarded during data analysis) followed by 19 of 2 μl injections at 120 s interval between injections. […] Binding data was subtracted from a control titration where peptide was titrated into buffer, and fitted using a one-set-of-site binding model to obtain dissociation constants, binding enthalpy (ΔH), and stoichiometry (N) using MicroCal ITC-ORIGIN Analysis Software 7.0 (Malvern).
(ITC needs no label: the signal is the heat of the interaction.)

Experiment [4] concerns the target T3, SBC with SOCS2 L106V (Homo sapiens, UniProt O14508+Q15369+Q15370, L106V).
T3 construct: His6 (N, cleaved yes); made in house; host or cells: E. coli BL21(DE3)
Kind of experiment: SPR, SNP mutant SBC immobilized. In kind it is binding. The conditions noted are these: read-out: SPR dissociation constant KD. As for the experimental part:
(§2) Protein expression was induced with isopropyl β-d-1-thiogalactopyranoside at 18 °C for 12 h. […] SBC was finally purified by size-exclusion chromatography on a Superdex 75 16/600 column (GE Healthcare) in 25 mM HEPES, pH 7.5, 250 mM NaCl and 10 mM DTT.
as §1
(In general: Surface plasmon resonance follows binding to a sensor surface in real time, without labels.)

The target of experiment [5] is T4, SBC with SOCS2 N94D (Homo sapiens, UniProt O14508+Q15369+Q15370, N94D).
T4 construct: His6 (N, cleaved yes); made in house; host or cells: E. coli BL21(DE3)
Kind of experiment: SPR, SNP mutant SBC immobilized. The experiment is classed as binding. The following applies: source data of Table 3, N94D. As for the experimental part: as §2, §1

Experiment [6] deals with T5, SBC with SOCS2 R96L (Homo sapiens, UniProt O14508+Q15369+Q15370, R96L).
T5 construct: His6 (N, cleaved yes); made in house; host or cells: E. coli BL21(DE3)
Briefly: SPR, SNP mutant SBC immobilized. The experiment is classed as binding. The conditions noted are these: for SPR KD: source data of Table 3, R96L. As for the experimental part: as §2, §1

Experiment [7] addresses T6, SBC with SOCS2 R96Q (Homo sapiens, UniProt O14508+Q15369+Q15370, R96Q).
T6 construct: His6 (N, cleaved yes); made in house; host or cells: E. coli BL21(DE3)
Kind of experiment: SPR, SNP mutant SBC immobilized. In kind it is binding. The conditions noted are these: for SPR KD: source data of Table 3, R96Q. As for the experimental part: as §2, §1

Where [8] appears, read: Table 2, biotinylated wild-type SBC immobilized, peptide 0.08-60 μM, 20 mM HEPES pH7.5, 150 mM NaCl, 1 mM TCEP, 0.005% Tween20, 10 °C, steady-state 1:1 model, read-out: SPR KD.
Setting [9] is: read-out: SPR dissociation constant KD.

As a reminder, the Kd is the constant that tells how readily two partners part at equilibrium. As a reminder, the Ki is a dissociation constant, usually derived from enzyme kinetics or from competition with a known ligand.

Read-outs that look alike come from different tables or passages of the source. Where a SMILES comes first, the peptide text is derived from it. [ ]: non-standard residue; d: D form. pY = N[C@@H](Cc1ccc(OP(=O)(O)O)cc1)C(=O)O

T1 sequence (O14508 32-198): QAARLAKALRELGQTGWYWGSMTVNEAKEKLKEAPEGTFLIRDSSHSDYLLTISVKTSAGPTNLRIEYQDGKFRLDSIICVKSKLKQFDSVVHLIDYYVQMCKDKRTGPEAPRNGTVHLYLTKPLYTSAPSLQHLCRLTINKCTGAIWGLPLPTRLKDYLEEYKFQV
T1 sequence (Q15370 1-104 partner limits assumed): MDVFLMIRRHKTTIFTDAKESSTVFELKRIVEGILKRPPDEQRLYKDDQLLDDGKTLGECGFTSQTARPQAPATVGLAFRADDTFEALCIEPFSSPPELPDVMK
T1 sequence (Q15369 17-112 partner limits assumed): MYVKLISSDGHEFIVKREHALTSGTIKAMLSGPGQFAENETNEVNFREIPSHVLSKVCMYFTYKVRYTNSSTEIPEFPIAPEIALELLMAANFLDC
SBC (SOCS2-ElonginB-ElonginC), sequence (O14508 32-198): as the sequence (O14508 32-198) above
SBC (SOCS2-ElonginB-ElonginC), sequence (Q15370 1-104 partner limits assumed): as the sequence (Q15370 1-104 partner limits assumed) above
SBC (SOCS2-ElonginB-ElonginC), sequence (Q15369 17-112 partner limits assumed): as the sequence (Q15369 17-112 partner limits assumed) above
T5 sequence (O14508 32-198 R96L): as the sequence (O14508 32-198) above, with R65L counted along it
T5 sequence (Q15370 1-104 partner limits assumed): as the sequence (Q15370 1-104 partner limits assumed) above
T5 sequence (Q15369 17-112 partner limits assumed): as the sequence (Q15369 17-112 partner limits assumed) above
T6 sequence (O14508 32-198 R96Q): as the sequence (O14508 32-198) above, with R65Q counted along it
T6 sequence (Q15370 1-104 partner limits assumed): as the sequence (Q15370 1-104 partner limits assumed) above
T6 sequence (Q15369 17-112 partner limits assumed): as the sequence (Q15369 17-112 partner limits assumed) above
T4 sequence (O14508 32-198 N94D): as the sequence (O14508 32-198) above, with N63D counted along it
T4 sequence (Q15370 1-104 partner limits assumed): as the sequence (Q15370 1-104 partner limits assumed) above
T4 sequence (Q15369 17-112 partner limits assumed): as the sequence (Q15369 17-112 partner limits assumed) above
T2 sequence (O14508 32-198): as the sequence (O14508 32-198) above
T2 sequence (Q15370 1-104 partner limits assumed): as the sequence (Q15370 1-104 partner limits assumed) above
T2 sequence (Q15369 17-112 partner limits assumed): as the sequence (Q15369 17-112 partner limits assumed) above
T3 sequence (O14508 32-198 L106V): as the sequence (O14508 32-198) above, with L75V counted along it
T3 sequence (Q15370 1-104 partner limits assumed): as the sequence (Q15370 1-104 partner limits assumed) above
T3 sequence (Q15369 17-112 partner limits assumed): as the sequence (Q15369 17-112 partner limits assumed) above

Consider `CC[C@H](C)[C@H](NC(=O)[C@@H](NC(=O)[C@H](Cc1ccc(OP(=O)(O)O)cc1)NC(=O)[C@H](C)NC(=O)[C@H](Cc1ccccc1)NC(=O)[C@H](CO)NC(=O)[C@H](C)N)[C@@H](C)O)C(=O)N[C@@H](CC(C)C)C(=O)N[C@@H](CC(=O)O)C(=O)N1CCC[C@H]1C(=O)N[C@@H](CO)C(N)=O` [ASFApYTILDPS] (H-ASFA[pY]TILDPS-NH2), for which, in experiment [1] (setting [8]), the Kd worked out at 21.7 ± 1.49 µM.
In experiment [2], `CC(C)C[C@H](NC(=O)[C@H](C)NC(=O)[C@@H](NC(=O)[C@H](Cc1ccc(OP(=O)(O)O)cc1)NC(=O)[C@H](CCC(=O)O)NC(=O)[C@H](Cc1ccccc1)NC(=O)[C@H](CO)NC(=O)[C@H](C)N)[C@@H](C)O)C(=O)N[C@@H](CC(=O)O)C(=O)N1CCC[C@H]1C(=O)N[C@@H](CO)C(N)=O` [ASFEpYTALDPS] (H-ASFE[pY]TALDPS-NH2) gave a Ki of 17.2 ± 0.89 µM.
Turning to `CC[C@H](C)[C@H](NC(=O)[C@@H](NC(=O)[C@H](Cc1ccc(OP(=O)(O)O)cc1)NC(=O)[C@H](CCC(=O)O)NC(=O)[C@H](Cc1ccccc1)NC(=O)[C@H](CO)NC(=O)[C@H](C)N)[C@@H](C)O)C(=O)N[C@@H](CC(C)C)C(=O)N[C@@H](C)C(=O)N1CCC[C@H]1C(=O)N[C@@H](CO)C(N)=O` [ASFEpYTILAPS] (H-ASFE[pY]TILAPS-NH2), in experiment [1] (setting [8]), the Kd came out at 18 ± 0.91 µM. Moreover, the Ki in experiment [2] stood at 14.1 ± 1.74 µM.
For `CC[C@H](C)[C@H](NC(=O)[C@@H](NC(=O)[C@H](Cc1ccc(OP(=O)(O)O)cc1)NC(=O)[C@H](CCC(=O)O)NC(=O)[C@H](Cc1ccccc1)NC(=O)[C@H](CO)NC(=O)[C@H](C)N)[C@@H](C)O)C(=O)N[C@@H](CC(C)C)C(=O)N[C@@H](CC(=O)O)C(=O)N[C@@H](C)C(=O)N[C@@H](CO)C(N)=O` [ASFEpYTILDAS] (H-ASFE[pY]TILDAS-NH2), the Kd in experiment [1] (setting [8]) is 8.9 ± 1.25 µM. In addition, the Ki in experiment [2] amounted to 6.9 ± 1.39 µM.
`CC[C@H](C)[C@H](NC(=O)[C@H](CO)NC(=O)[C@@H](NC(=O)[C@H](Cc1ccc(OP(=O)(O)O)cc1)NC(=O)[C@H](CC(=O)O)NC(=O)[C@@H]1CCCN1C(=O)[C@@H](NC(=O)[C@H](C)N)C(C)C)[C@@H](C)O)C(=O)N[C@@H](Cc1c[nH]cn1)C(=O)N[C@H](C(=O)N[C@H](C(N)=O)C(C)C)[C@@H](C)CC` [AVPDpYTSIHIV]: the Ki in experiment [2] was 0.9 ± 0.17 µM.
As for `CC[C@H](C)[C@H](NC(=O)[C@H](CC(=O)O)NC(=O)[C@H](CO)NC(=O)[C@@H](NC(=O)[C@H](CCC(N)=O)NC(=O)[C@H](C)NC(=O)[C@H](Cc1ccc(OP(=O)(O)O)cc1)NC(=O)[C@H](Cc1ccccc1)NC(=O)[C@H](CC(=O)O)NC(=O)[C@@H](NC(=O)[C@@H](N)CC(N)=O)[C@@H](C)CC)C(C)C)C(N)=O` [GHR_pY487] (H-NIDF[pY]AQVSDI-NH2), the Kd is 2.3 µM in experiment [3]; 5.1 ± 0.77 µM in experiment [1] (Table 3, wild-type SOCS2 (SBC), 10 °C, read-out: SPR dissociation constant KD); 8.9 ± 0.7 µM in experiment [4]; above 60 µM in experiment [6] (setting [9]); above 60 µM in experiment [7] (setting [9]). Moreover, the “SPR KD” value in experiment [5] (replicate 1), in experiment [5] (replicate 2), in experiment [5] (replicate 3), in experiment [5] (replicate 4), in experiment [6] (replicate 1) and in experiment [6] (replicate 2) was “weak” each time. Besides, the “SPR KD” value in experiment [6] (replicate 3) is given as “weak”; in experiment [6] (replicate 4), “weak”; in experiment [7] (replicate 1), “nb”; in experiment [7] (replicate 2), “nb”; in experiment [7] (replicate 3) it was “nb”; in experiment [7] (replicate 4), “nb”.
For `CC[C@H](C)[C@H](NC(=O)[C@H](CO)NC(=O)[C@@H](NC(=O)[C@H](Cc1ccc(OP(=O)(O)O)cc1)NC(=O)[C@H](CC(=O)O)NC(=O)[C@@H]1CCCN1C(=O)[C@H](C)NC(=O)[C@@H]1CCCN1)[C@@H](C)O)C(=O)N[C@@H](Cc1c[nH]cn1)C(=O)N[C@H](C(=O)N[C@H](C(N)=O)C(C)C)[C@@H](C)CC` [PAPDpYTSIHIV], the Ki in experiment [2] amounted to 3.4 ± 0.25 µM.
With `CC[C@H](C)[C@H](NC(=O)[C@H](CO)NC(=O)[C@H](C)NC(=O)[C@H](Cc1ccc(OP(=O)(O)O)cc1)NC(=O)[C@H](CC(=O)O)NC(=O)[C@@H]1CCCN1C(=O)[C@@H](NC(=O)[C@@H]1CCCN1)C(C)C)C(=O)N[C@@H](Cc1c[nH]cn1)C(=O)N[C@H](C(=O)N[C@H](C(N)=O)C(C)C)[C@@H](C)CC` [PVPDpYASIHIV] (H-PVPD[pY]ASIHIV-NH2), the Kd in experiment [1] (setting [8]) stood at 1 ± 0.09 µM. The same molecule yielded a Ki in experiment [2] of 0.5 ± 0.07 µM.
The molecule `CC[C@H](C)[C@H](NC(=O)[C@H](Cc1c[nH]cn1)NC(=O)[C@H](C)NC(=O)[C@H](CO)NC(=O)[C@@H](NC(=O)[C@H](Cc1ccc(OP(=O)(O)O)cc1)NC(=O)[C@H](CC(=O)O)NC(=O)[C@@H]1CCCN1C(=O)[C@@H](NC(=O)[C@@H]1CCCN1)C(C)C)[C@@H](C)O)C(=O)N[C@H](C(N)=O)C(C)C` [PVPDpYTSAHIV] (H-PVPD[pY]TSAHIV-NH2) showed a Ki in experiment [2] of 3.4 ± 0.66 µM.
As to `CC[C@H](C)[C@H](NC(=O)[C@H](C)NC(=O)[C@@H](NC(=O)[C@H](CO)NC(=O)[C@@H](NC(=O)[C@H](Cc1ccc(OP(=O)(O)O)cc1)NC(=O)[C@H](CC(=O)O)NC(=O)[C@@H]1CCCN1C(=O)[C@@H](NC(=O)[C@@H]1CCCN1)C(C)C)[C@@H](C)O)[C@@H](C)CC)C(=O)N[C@H](C(N)=O)C(C)C` [PVPDpYTSIAIV] (H-PVPD[pY]TSIAIV-NH2), the Kd in experiment [1] (setting [8]) amounted to 6.7 ± 0.78 µM.
Still for that read-out and setting: with `CC[C@H](C)[C@H](NC(=O)[C@H](Cc1c[nH]cn1)NC(=O)[C@@H](NC(=O)[C@H](CO)NC(=O)[C@@H](NC(=O)[C@H](Cc1ccc(OP(=O)(O)O)cc1)NC(=O)[C@H](CC(=O)O)NC(=O)[C@@H]1CCCN1C(=O)[C@@H](NC(=O)[C@@H]1CCCN1)C(C)C)[C@@H](C)O)[C@@H](C)CC)C(=O)N[C@@H](C)C(N)=O` [PVPDpYTSIHIA] the figure was 1.9 ± 0.09 µM.
On to `CC[C@H](C)[C@H](NC(=O)[C@H](CO)NC(=O)[C@@H](NC(=O)[C@H](Cc1ccc(OP(=O)(O)O)cc1)NC(=O)[C@H](CC(=O)O)NC(=O)[C@@H]1CCCN1C(=O)[C@H](CCCNC(=N)N)NC(=O)[C@@H]1CCCN1)[C@@H](C)O)C(=O)N[C@@H](Cc1c[nH]cn1)C(=O)N[C@H](C(=O)N[C@H](C(N)=O)C(C)C)[C@@H](C)CC` [V(−3)R] (H-PRPD[pY]TSIHIV-NH2), for which, in experiment [1] (setting [8]), the Kd was 9 ± 1.05 µM.
Take `CC[C@H](C)[C@H](NC(=O)[C@H](CO)NC(=O)[C@@H](NC(=O)[C@H](Cc1ccc(OP(=O)(O)O)cc1)NC(=O)[C@H](CC(=O)O)NC(=O)[C@@H]1CCCN1C(=O)[C@H](Cc1ccc(O)cc1)NC(=O)[C@@H]1CCCN1)[C@@H](C)O)C(=O)N[C@@H](Cc1c[nH]cn1)C(=O)N[C@H](C(=O)N[C@H](C(N)=O)C(C)C)[C@@H](C)CC` [V(−3)Y] (H-PYPD[pY]TSIHIV-NH2): in experiment [1] (setting [8]), the Kd worked out at 3.3 ± 0.13 µM. The molecule further returned a Ki in experiment [2] of 3.3 ± 0.24 µM.
